Data reported in PubChem BioAssay (NCI).
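Cells were grown in 96-well plates and exposed to each compound for 48 hours at five concentrations; endpoints were interpolated linearly between bracketing concentrations, or set to the highest concentration if not reached. TGI marks complete inhibition of growth.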

Tests used:
Assay in all cases: inhibition of tumour cell growth, NCI panel, 48 h
SNB-75 CNS = tested on: SNB-75 CNS
SK-OV-3 ovarian = tested on: SK-OV-3 ovarian
UO-31 renal = tested on: UO-31 renal
PC-3 prostate = tested on: PC-3 prostate
NCI-H460 lung = tested on: NCI-H460 lung
SK-MEL-2 melanoma = tested on: SK-MEL-2 melanoma
SF-539 CNS = tested on: SF-539 CNS
NCI/ADR-RES ovarian = tested on: NCI/ADR-RES ovarian
HOP-62 NSCLC = tested on: HOP-62 NSCLC
MOLT-4 leukemia = tested on: MOLT-4 leukemia
OVCAR-5 ovarian = tested on: OVCAR-5 ovarian
T-47D breast = tested on: T-47D breast
SF-295 CNS = tested on: SF-295 CNS
CCRF-CEM leukemia = tested on: CCRF-CEM leukemia
SK-MEL-5 melanoma = tested on: SK-MEL-5 melanoma
OVCAR-3 ovarian = tested on: OVCAR-3 ovarian
HT29 colon = tested on: HT29 colon
MDA-MB-435 = tested on: MDA-MB-435
RPMI-8226 leukemia = tested on: RPMI-8226 leukemia
SR leukemia = tested on: SR leukemia
U251 CNS = tested on: U251 CNS
MDA-MB-231 breast = tested on: MDA-MB-231 breast
KM12 colon = tested on: KM12 colon
IGROV1 ovarian = tested on: IGROV1 ovarian
NCI-H522 lung = tested on: NCI-H522 lung
SNB-19 CNS = tested on: SNB-19 CNS
NCI-H23 lung = tested on: NCI-H23 lung
HL-60(TB) leukemia = tested on: HL-60(TB) leukemia
SF-268 CNS = tested on: SF-268 CNS
LOX IMVI melanoma = tested on: LOX IMVI melanoma
HCT-116 colon = tested on: HCT-116 colon
A549 NSCLC = tested on: A549 NSCLC
NCI-H226 lung = tested on: NCI-H226 lung
SW-620 colon = tested on: SW-620 colon
UACC-62 melanoma = tested on: UACC-62 melanoma
786-0 renal = tested on: 786-0 renal
M14 melanoma = tested on: M14 melanoma
K-562 leukemia = tested on: K-562 leukemia
BT-549 breast = tested on: BT-549 breast
SK-MEL-28 melanoma = tested on: SK-MEL-28 melanoma
ACHN renal = tested on: ACHN renal
SN12C renal = tested on: SN12C renal
DU-145 prostate = tested on: DU-145 prostate
CAKI-1 renal = tested on: CAKI-1 renal
HCC-2998 colon = tested on: HCC-2998 colon
COLO 205 colon = tested on: COLO 205 colon
A498 renal = tested on: A498 renal
HS 578T breast = tested on: HS 578T breast
OVCAR-8 ovarian = tested on: OVCAR-8 ovarian
EKVX NSCLC = tested on: EKVX NSCLC
TK-10 renal = tested on: TK-10 renal
HCT-15 colon = tested on: HCT-15 colon
MALME-3M melanoma = tested on: MALME-3M melanoma
UACC-257 melanoma = tested on: UACC-257 melanoma
MCF7 breast = tested on: MCF7 breast
OVCAR-4 ovarian = tested on: OVCAR-4 ovarian
RXF 393 renal = tested on: RXF 393 renal

S=c1sc2c(s1)SCc1cccc(n1)CSc1sc(=S)sc1SCc1cccc(n1)CS2
TGI (SNB-75 CNS): > 100 µM | TGI (SK-OV-3 ovarian): > 100 µM | TGI (UO-31 renal): > 100 µM | TGI (PC-3 prostate): > 100 µM | TGI (NCI-H460 lung): > 100 µM | TGI (SK-MEL-2 melanoma): > 100 µM | TGI (SF-539 CNS): > 100 µM | TGI (NCI/ADR-RES ovarian): > 100 µM | TGI (HOP-62 NSCLC): > 100 µM | TGI (MOLT-4 leukemia): > 100 µM | TGI (OVCAR-5 ovarian): > 100 µM | TGI (T-47D breast): > 100 µM | TGI (SF-295 CNS): > 100 µM | TGI (CCRF-CEM leukemia): > 100 µM | TGI (SK-MEL-5 melanoma): > 100 µM | TGI (OVCAR-3 ovarian): > 100 µM | TGI (HT29 colon): > 100 µM | TGI (MDA-MB-435): > 100 µM | TGI (RPMI-8226 leukemia): > 100 µM | TGI (SR leukemia): > 100 µM | TGI (U251 CNS): > 100 µM | TGI (MDA-MB-231 breast): > 100 µM | TGI (KM12 colon): > 100 µM | TGI (IGROV1 ovarian): > 100 µM | TGI (NCI-H522 lung): > 100 µM | TGI (SNB-19 CNS): > 100 µM | TGI (NCI-H23 lung): > 100 µM | TGI (HL-60(TB) leukemia): > 100 µM | TGI (SF-268 CNS): > 100 µM | TGI (LOX IMVI melanoma): > 100 µM | TGI (HCT-116 colon): > 100 µM | TGI (A549 NSCLC): > 100 µM | TGI (NCI-H226 lung): > 100 µM | TGI (SW-620 colon): > 100 µM | TGI (UACC-62 melanoma): > 100 µM | TGI (786-0 renal): > 100 µM | TGI (M14 melanoma): > 100 µM | TGI (K-562 leukemia): > 100 µM | TGI (BT-549 breast): > 100 µM | TGI (SK-MEL-28 melanoma): > 100 µM | TGI (ACHN renal): > 100 µM | TGI (SN12C renal): > 100 µM | TGI (DU-145 prostate): > 100 µM | TGI (CAKI-1 renal): > 100 µM | TGI (HCC-2998 colon): > 100 µM | TGI (COLO 205 colon): > 100 µM | TGI (A498 renal): > 100 µM | TGI (HS 578T breast): > 100 µM | TGI (OVCAR-8 ovarian): > 100 µM | TGI (EKVX NSCLC): > 100 µM | TGI (TK-10 renal): > 100 µM | TGI (HCT-15 colon): > 100 µM | TGI (MALME-3M melanoma): > 100 µM | TGI (UACC-257 melanoma): > 100 µM

Cc1cc(C(=O)CBr)c(CN2C(=O)c3ccccc3C2=O)c(=O)n1C
TGI (SNB-75 CNS): 56.5 µM | TGI (SK-OV-3 ovarian): > 100 µM | TGI (UO-31 renal): 41.6 µM | TGI (MCF7 breast): 56 µM | TGI (PC-3 prostate): 35.5 µM | TGI (OVCAR-4 ovarian): > 100 µM | TGI (NCI-H460 lung): 76.6 µM | TGI (SK-MEL-2 melanoma): 61.7 µM | TGI (SF-539 CNS): 34.3 µM | TGI (NCI/ADR-RES ovarian): > 100 µM | TGI (HOP-62 NSCLC): > 100 µM | TGI (MOLT-4 leukemia): 5.57 µM | TGI (OVCAR-5 ovarian): 52.6 µM | TGI (T-47D breast): 74.4 µM | TGI (SF-295 CNS): > 100 µM | TGI (CCRF-CEM leukemia): 6.25 µM | TGI (OVCAR-3 ovarian): 40.9 µM | TGI (HT29 colon): > 100 µM | TGI (MDA-MB-435): 43.6 µM | TGI (U251 CNS): 38 µM | TGI (MDA-MB-231 breast): 40.2 µM | TGI (KM12 colon): 40.1 µM | TGI (IGROV1 ovarian): 64.2 µM | TGI (RXF 393 renal): 33.7 µM | TGI (NCI-H522 lung): 37.4 µM | TGI (SNB-19 CNS): 93.2 µM | TGI (NCI-H23 lung): > 100 µM | TGI (HL-60(TB) leukemia): 25 µM | TGI (SF-268 CNS): 54.9 µM | TGI (LOX IMVI melanoma): 99.3 µM | TGI (HCT-116 colon): > 100 µM | TGI (A549 NSCLC): 44.7 µM | TGI (NCI-H226 lung): > 100 µM | TGI (SW-620 colon): 23 µM | TGI (UACC-62 melanoma): 34.7 µM | TGI (786-0 renal): > 100 µM | TGI (M14 melanoma): > 100 µM | TGI (K-562 leukemia): 20.6 µM | TGI (BT-549 breast): 32.7 µM | TGI (SK-MEL-28 melanoma): 42.7 µM | TGI (ACHN renal): 25.6 µM | TGI (SN12C renal): 36 µM | TGI (DU-145 prostate): 30.5 µM | TGI (CAKI-1 renal): 47.8 µM | TGI (HCC-2998 colon): 59.7 µM | TGI (COLO 205 colon): 47.9 µM | TGI (HS 578T breast): 45.6 µM | TGI (OVCAR-8 ovarian): 41.1 µM | TGI (EKVX NSCLC): 14.5 µM | TGI (TK-10 renal): 25.3 µM | TGI (HCT-15 colon): 34.9 µM | TGI (MALME-3M melanoma): 36.8 µM | TGI (UACC-257 melanoma): 33.5 µM
